In patent US4138485A, “Phenylalanine derivatives” (Kyowa Hakko Kogyo Kabushiki Kaisha, priority 1976, dated 1979):

How the values were obtained:
Acute toxicity in mice = settings: in vivo; mouse, oral administration, after one week; read-out: Acute Toxicity (LD50), A
Method: (§1) (1) Acute toxicity and tonic convulsion in hind paw:
(§2) The acute toxicity and tonic convulsion occured by stimulus by hand touch were determined in the following manner to give the results shown in Table 2.
(a) Acute toxicity in mice:
38 Groups, each consisting of 5 mice (male dd-strain, weight -- 18 to 24 g), were used for the test and control groups. The compounds shown in Table 2 were administered orally or intraperitoneally to the mice. After one week, the survival ratio was measured.

Mouse = test: Tonic convulsion of hind paw of mice (stimulus by hand touch); type: in vivo, mice (male dd-strain); settings: oral, 30 to 360 minutes
Method: as §1, §2
(c) Tonic convulsion of hind paw of mice:
38 Groups, each consisting of 5 mice (male dd-strain, weight -- 18 to 24 g), were used for the test and control groups. The compounds shown in Table 2 were orally administered to the mice. At 30, 60, 120, 180 and 360 minutes after the administration, stimulus by hand touch was given to the mice and the tonic convulsion was observed.

[1] = system: hyperlipemia induced by Triton; test: Cholesterol-lowering activity on hyperlipemia induced by Triton in mice; type: in vivo, mice (male dd-strain); settings: Mus musculus, po, 43 h, read-out: Ratio of the reduction of cholesterol
Method: (2) Cholesterol-Lowering activity on hyperlipemia induced by Triton in mice:
38 Groups, each consisting of 9 mice (male dd-strain, weight -- 19 to 21 g), were used for the test and control groups. […] Immediately after the administration and also after 20 hours from the administration of Triton, the mice were orally administered with 100 mg/kg of the compound shown in Table 3. 43 hours after the administration of Triton, the blood samples were collected by decapitation and then the corpuscle was removed by centrifugation. Cholesterol in the serum was determined by Zurkowski's method modified by Shibata (color of the test solution was developed by using sulfoalicyclic acid, acetic acid and sulfuric acid and the optical density of the solution was determined at 620 mμ.

Acute toxicity in rats = settings: in vivo; rat, oral administration, after one week; read-out: Acute Toxicity (LD50), C
Method: as §1, §2
(b) Acute toxicity in rats:
28 Groups, each consisting of 5 rats (male Wistar strain, weight -- 200 g), were used for the test and control groups. The compounds shown in Table 2 were orally administered to the rats. After one week, the survival ratio was measured.

Cholesterol in the serum = test: Cholesterol-lowering activity on normal rats of Wistar strain (serum cholesterol, liver weight); type: in vivo, rats (male Wistar strain); settings: 0.3% in diet; for B - Ratio of decrease of liver weight: continuous administration for 4 days; for C - Ratio of decrease of cholesterol / D - Ratio of increase of liver weight: continuous administration for 14 days
Method: (3) Cholesteral-lowering activity on normal rats of Wistar strain:
(i) 22 Groups, each consisting of 5 rats (male Wistar strain, weight -- 150 to 180 g) were used for the test and control groups. After this, the blood samples were collected by decapitation and then the corpuscle was removed by centrifugation. Cholesterol in the serum was determined by Zurkowski's method modified by Shibata and also the liver was excised and weighed. The results are shown in Table 4 wherein the ratio of 100% denotes the amount of chloresterol and the weight of the liver of normal rats fed with powdery diet without the addition of the compound.

Row | SMILES | LD50 at 168 h (Acute toxicity in mice) | Tonic convulsion (Mouse; D = 1000 mg/kg) | inhibition in vivo at 100 mg/kg [1] | LD50 at 168 h (Acute toxicity in rats) | Tonic convulsion (Mouse; D = 500 mg/kg) | B - Ratio of decrease of liver weight (Cholesterol in the serum) | C - Ratio of decrease of cholesterol (Cholesterol in the serum) | D - Ratio of increase of liver weight (Cholesterol in the serum)
1 | Cc1cccc(CSC(=O)N[C@@H](Cc2ccccc2)C(=O)O)c1 [Compound 22, N-(3-methylbenzylthiocarbonyl)-L-phenylalanine] | > 1000 mg/kg | + | 46% |  |  |  |  | 
2 | COC(=O)[C@H](Cc1ccccc1)NC(=O)SCc1ccccc1 [Compound 18, N-benzylthiocarbonyl-L-phenylalanine methylester] | > 1000 mg/kg |  | 80% | > 200 mg/kg | + | 39% | 3.0% | 92%
3 | O=C(N[C@@H](Cc1ccccc1)C(=O)O)SCc1ccccc1 [Compound 16, N-benzylthiocarbonyl-L-phenylalanine] | > 1000 mg/kg |  | 86% | > 200 mg/kg | + |  | 9.2% | 79%
4 | COC(=O)[C@H](Cc1ccccc1)NC(=O)SCc1ccc(F)cc1 [Compound 12, N-(4-fluorobenzylthiocarbonyl)-L-phenylalanine methylester] | > 1000 mg/kg | + | 76% | > 100 mg/kg |  | 45.9% |  | 
5 | COC(=O)[C@H](Cc1ccccc1)NC(=O)SCc1ccccc1C [Compound 21, N-(2-methylbenzylthiocarbonyl)-L-phenylalanine methylester] | > 1000 mg/kg | + | 43% |  |  |  |  | 
6 | O=C(NC(Cc1ccccc1)C(=O)O)SCc1ccccc1 (racemic) [Compound 17, N-benzylthiocarbonyl-D,L-phenylalanine] | > 1000 mg/kg | + | 95% | > 100 mg/kg |  | 35.2% |  | 
7 | Cc1ccccc1CSC(=O)N[C@@H](Cc1ccccc1)C(=O)O [Compound 20, N-(2-methylbenzylthiocarbonyl)-L-phenylalanine] | > 1000 mg/kg | + | 47% |  |  |  |  | 
